Laboratory results as given in patent US7928186B2, “Cell permeable bioactive peptide conjugates” (Phoenix Pharmaceuticals, Inc., priority 2006, dated 2011).
Bridge positions count the residues as written; N and C are the ends. Ends that are not written are not given here. * marks the point of attachment. Acm = CC(=O)NC*

Columns and labels:
[1] = tested on: dissociate and cultured cortical neurons; assay: Mobilization of intracellular Ca2+ in dissociate cultured cortical neurons (Fura-2 AM fluorescence); assay type: cell-based, rat (newborn Sprague-Dawley)
From the text: Neurons can be isolated from cerebral cortex according to the protocols for postnatal dissociated nuerons as disclosed for example by Huettner, J. E. and Baughman, R. W., Primary Culture of Identified Neurons From the Visual Cortex of Postnatal Rats, Journal of Neurosciences 6; 3044-3060 (1986); Brewer, G. J., Isolation and Culture of Adult Rat Hippocampal Neurons, Journal of Neuroscience Methods, 71:143-155 (1997); and Brailoiu et al., NAADP Potentiates Neurite Outgrowth, Journal of Biological Chemistry (in press), each hereby incorporated by reference. Newborn Sprague-Dawley rates (about 1 day to about 4 days old) were killed by cervical dislocation. Cerebral cortex was removed and quickly immersed in ice-cold phosphate buffer solution. After removal of meninges, tissue was minced into about I-millimeter blocks, incubated for about 45 minutes at 37° C. in Hanks balanced salt solution without Ca^2+ and Mg^2+ (Invitrogen, 1600 Faraday Avenue, Carlsbad, Calif. 92008) and supplemented with about 200 ug/mL penicillin, 0.1% EDTA and papain 0.15 mg/mL (Sigma-Aldrich, St. Louis, Mo.). In accordance with the procedure disclosed by Brewer, the tissue can be further dissociated by gentle mechanical trituration. After centrifugation at 500×g, cells can be re-suspended in fetal serum free media containing Neurobasal-ATM medium supplemented with […], 100 unites penicillin, 100 ug streptomycin, and B27 supplement all of which can be obtained for example from Invitrogen. The resulting cells can be plated at a low density of about 10^4 on round glass coverslips in twenty four well plates. Neurons were cultured at 37° C. in […] and 5% carbon dioxide for about 3 days to about 5 days. The mitotic inhibitor, cytosine P-arabino furanosidde (about 1 μM) which can be obtained from Sigma-Aldrich can be added to cultured neurons to inhibit glial cell proliferation according to the procedure disclosed by Billingsley, M. L. and Mandel, H. G., Effects of DNA Synthesis Inhibitors on Post-Traumatic Glial Cell Proliferation, Journal of Pharmacology and Experimental Therapeutics, 222: 765-770 (1982).
Measurement of mobilized intracellular calcium ion (Ca^2+) in dissociate cultured neurons in response to peptide fragments of HIV-1 Tat polypeptides can be performed as disclosed by Brailoiu E. et al. Neurons cultured about 24 hours on coverslips as above-described were loaded in HBBS with 5μ Fura-2 AM dye at room temperature (about 20° C.) for about 45 minutes in the dark, then washed three times with Fura-2 AM free buffer and allowed to incubate to allow de-esterification of the dye for about 45 minutes. Under these conditions, compartmentalization of the dye was minimal (about 9.2%±0.2% n=6) as judged from the ratio of fluorescence signals after selective permeabilization of the plasma membrane (10 μM β-escein) and full permeabilization of the cultured cells (60 μg/mL saponin). The coverslips were mounted in a custom designed bath on the stage of a S300 Axiovert […] inverted microscope equipped with a C&L Instruments fluorimeter as described by Brailoiu et al. The Fura-2 fluorescent signal was calibrated by successive addition of 20 μg/mL digitonin, 20 mM EDTA, and 0.5 mM MnCl2.
Table 1. Effect of HIV1-Tat Polypeptides on [Ca^2+] Response in Dissociate and Cultured Cortical Neurons

[2] = tested on: rat medulla oblongata (NTS, RVLM); details: cited from earlier work
humans = details: infusion of normal postprandial concentrations, over 24 h; cited from earlier work

Row | Substance | [Ca^2+] response ([1]; n = 5-10) | other results
1 | HIV1 30-47 (Cys30-Cys34)(Cys31-Cys37) (CCFHCQVCFITKALGISY; disulfide 1-5, 2-8) [HIV1 30-47 (Cys 30-Cys34)(Cys 31-Cys37), HIV1 Tat fragment which lacks the second transport peptide region] | – | [Ca^2+] response ([1]; n = 5-10 in a column of its own, listed as 30-47 (Cys 30-Cys34)(Cys 31-Cys37)): No Response; [Ca^2+] response ([1]; n = 5-10 in a column of its own, listed as HIV1 30-47 (Cys30-Cys34)(Cys31-Cys37)): cannot mobilize intracellular calcium ion
2 | HIV1 58-86 (AHQNSQTHQASLSKQPTSQPRGDPTGPKE; Human immunodeficiency virus type 1) [peptide fragment of the C-terminal region of the HIV1 30-86 peptide] | 54 ± 28 nM | –
3 | HIV1 30-57 (Cys31-Cys37)(Cys 31-ACM)(Cys34-ACM) (C(Acm)CFHC(Acm)QVCFITKALGISYGRKKRRQRRR; disulfide 2-8) [HIV1 30-48 (Cys 30 ACM)(Cys 31-Cys 37 disulfide)(Cys 34 ACM) with transport region HIV1 49-57] | 197 ± 35 nM | –
4 | HIV1 30-57 (Cys30-Cys34)(Cys 31-Cys37) (CCFHCQVCFITKALGISYGRKKRRQRRR; disulfide 1-5, 2-8) [HIV1 30-57 (Cys30-Cys34)(Cys31-Cys37)] | 528 ± 60 nM | –
5 | HIV1 30-57 (Cys30-Cys31)(Cys 34-Cys37) (CCFHCQVCFITKALGISYGRKKRRQRRR; disulfide 1-2, 5-8) [HIV1 30-57 (Cys30-Cys31)(Cys34-Cys37)] | 258 ± 54 nM | –
6 | HIV1 48-84 (GRKKRRQRRRAHQNSQTHQASLSKQPTSQPRGDPTGP; Human immunodeficiency virus type 1) [peptide fragment of the HIV1 30-86 peptide] | 80 ± 28 nM | –
7 | HIV1 32-62 (Cys34-Cys37): HIV1 Tat polypeptide fragment 32-62 with Cys34-Cys37 disulfide (FHCQVCFITKALGISYGRKKRRQRRRAHQNS; disulfide 3-6) | 752 ± 59 nM | –
8 | HIV1 41-60 (KALGISYGRKKRRQRRRAHQ; Human immunodeficiency virus type 1) [peptide fragment of the HIV1 30-86 peptide] | 66 ± 13 nM | –
9 | HIV1 30-57 (Cys30-Cys37)(Cys 31-Cys34) (CCFHCQVCFITKALGISYGRKKRRQRRR; disulfide 1-8, 2-5) [HIV1 30-57 (Cys30-Cys37)(Cys31-Cys34), 14] | 197 ± 46 nM | –
10 | HIV1 62-86 (SQTHQASLSKQPTSQPRGDPTGPKE; Human immunodeficiency virus type 1) [peptide fragment of the C-terminal region of the HIV1 30-86 peptide] | No Response | –
11 | RKKRRQRRR (Human immunodeficiency virus type 1) [HIV1 49-57, Tat transduction domain, transport peptide region alone] | No Response | –
12 | HIV1 30-86 (Cys30-Cys34)(Cys31-Cys37) (CCFHCQVCFITKALGISYGRKKRRQRRRAHQNSQTHQASLSKQPTSQPRGDPTGPKE; disulfide 1-5, 2-8) | 390 ± 21 nM | –
13 | Apelin: endogenous ligands at the orphan G-protein coupled receptor, APJ (QRPRLSHKGPMPF; Apelin-13; UniProt Q9ULZ1 65-77, looked up) | – | increase in arterial pressure ([2]; microinjection into either of the NTS and the RVLM): 10-20 mm Hg; decreased phrenic nerve discharge amplitude ([2]; microinjection into the NTS): up to 30%
14 | HIV1 61-80 (NSQTHQASLSKQPTSQPRGD; Human immunodeficiency virus type 1) [peptide fragment of the C-terminal region of the HIV1 30-86 peptide] | 56 ± 20 nM | –
15 | Peptide YY(3-36) [PYY(3-36)] | – | reduction of food intake (humans): 33%
